In series [1] the target is CDK1/cyclin B. The series is described as follows: CDK1/cyclin B kinase assay (histone H1, 15 μM ATP). The series is classed as biochemical, starfish (Marthasterias glacialis). As to conditions: 15 μM ATP, Table 1. The method, then:
(§1) Blank values were subtracted and activities calculated as pmoles of phosphate incorporated for a 10 min. incubation. […] Controls were performed with appropriate dilutions of dimethylsulfoxide. In a few cases phosphorylation of the substrate was assessed by autoradiography after SDS-PAGE.
CDK1/cyclin B was extracted in homogenisation buffer from M phase starfish (Marthasterias glacialis) oocytes and purified by affinity chromatography on p9^CKShs1-sepharose beads, from which it was eluted by free p9^CKShs1. […] ATP (3,000 Ci/mmol; 1 mCi/ml) in a final volume of 30 μl. After 10 min. incubation at 30° C., 25 μl aliquots of supernatant were spotted onto P81 phosphocellulose papers and treated as described above.
(§2) Kinases were assayed as above described in the presence of increasing concentrations of aloisines.

In series [2] the target is CDK5/p25 (Homo sapiens, UniProt Q00535). In words: CDK5/p25 kinase assay (histone H1, 15 μM ATP). The class given is biochemical, mammalian. The settings on record: Table 1. The method, then:
as §1
CDK5/p25 was reconstituted by mixing equal amounts of recombinant mammalian CDK5 and p25 expressed in E. coli as GST (Glutathione-S-transferase) fusion proteins and purified by affinity chromatography on glutathione-agarose (p25 is a truncated version of p35, the 35 kDa CDK5 activator). Its activity was assayed in buffer C as described for CDK1/cyclin B.
as §2

Series [3] deals with GSK-3α/β. In words: GSK-3 kinase assay (GS-1 peptide, 15 μM ATP). The class given is biochemical, porcine. As to conditions: read-out: IC50 GSK-3. The method, then: as §1
GSK-3α/β was either purified from porcine brain or expressed in and purified from insect Sf9 cells. […] ATP (3,000 Ci/mmol; 1 mCi/ml) in a final volume of 30 μl. After 30 min. incubation at 30° C., 25 μl aliquots of supernatant were spotted onto 2.5×3 cm pieces of Whatman P81 phosphocellulose paper, and, 20 sec. later, the filters were washed five times (for at least 5 min. each time) in a solution of 10 ml phosphoric acid/liter of water. The wet filters were counted in the presence of 1 ml ACS (Amersham) scintillation fluid.
as §2

The record followed here is patent US8106050B2, “Derivatives of pyrrolo-pyrazines having a kinase inhibitory activity and their biological applications” (Centre National de la Recherche Scientifique (C.N.R.S.), priority 2002, dated 2012).

For orientation: IC50 means the point on the concentration scale where inhibition reaches its midpoint. A word on the melting point: it is the temperature of the solid-liquid transition.

Where a name gives a salt, the structure may show the parent alone. Read-outs that look alike come from different tables or passages of the source.

Sequence of CDK5/p25 (Q00535 whole entry, species assumed): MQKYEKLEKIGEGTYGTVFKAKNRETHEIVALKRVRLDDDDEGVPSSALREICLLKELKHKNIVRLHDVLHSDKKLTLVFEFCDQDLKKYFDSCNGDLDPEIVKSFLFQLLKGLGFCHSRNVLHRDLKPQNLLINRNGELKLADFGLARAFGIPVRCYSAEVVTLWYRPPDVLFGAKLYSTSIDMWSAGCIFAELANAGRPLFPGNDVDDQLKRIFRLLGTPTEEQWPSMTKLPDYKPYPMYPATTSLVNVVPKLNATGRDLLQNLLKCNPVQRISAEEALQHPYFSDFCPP
Sequence of CDK5/p25 (Q15078 99-307 partner limits assumed, species assumed): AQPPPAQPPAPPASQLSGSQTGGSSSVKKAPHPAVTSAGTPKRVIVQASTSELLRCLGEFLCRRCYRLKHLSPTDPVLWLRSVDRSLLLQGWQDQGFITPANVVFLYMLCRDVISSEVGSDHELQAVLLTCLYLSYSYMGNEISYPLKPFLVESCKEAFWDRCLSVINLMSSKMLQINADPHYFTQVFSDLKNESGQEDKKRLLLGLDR

The molecule `c1coc(-c2cc3nccnc3[nH]2)c1` [1 (RP19), 6-(2-Furyl)[5H]pyrrolo[2,3-b]pyrazine] displayed a melting point of 232.6 °C. This molecule also returned an IC50 in series [1] of 12 µM. Inhibition in series [2] was half-maximal at 9.3 µM (IC50). Moreover, the IC50 in series [3] (15 μM ATP, Table 1) worked out at 15 µM.
On to `c1ccc2c(-c3cc4nccnc4[nH]3)cccc2c1` [6 (RP17), 6-(1-Naphtyl) [5H]pyrrolo[2,3-b]pyrazine], for which the melting point was 216.4 °C. In addition, in series [1], the IC50 was over 100 µM. Besides, the IC50 in series [3] (15 μM ATP, Table 1) came out at 27 µM.
Molecule `Cc1cnc2cc(-c3ccccc3)[nH]c2n1` [8 (RP18), 3-Methyl-6-phenyl[5H]pyrrolo[2,3-b]pyrazine] yielded a melting point of 261.8 °C. Further, the IC50 in series [1] was found to be 69 µM. Further, in series [3] (15 μM ATP, Table 1), the IC50 was over 100 µM.
`Clc1ccc(C2(c3cc4nccnc4[nH]3)CC2)cc1` [9 (RP124), 6-[1-(4-Chlorophenyl)-1-cyclopropyl][5H]pyrrolo[2,3-b]pyrazine] showed a melting point of 189.7 °C. In series [1], this molecule returned an IC50 of 30 µM. For the same molecule, in series [3] (15 μM ATP, Table 1), the IC50 worked out at 1 µM.
With `COc1ccccc1-c1cc2nccnc2[nH]1` [10 (RP9), 6-(2-Methoxyphenyl)[5H]pyrrolo[2,3-b]pyrazine], the melting point was 156.9 °C. In series [1], this molecule showed an IC50 of 20 µM. Besides, the IC50 in series [3] (15 μM ATP, Table 1) turned out to be 3.3 µM.
The corresponding values for `COc1cccc(-c2cc3nccnc3[nH]2)c1` [12 (RP10), 6-(3-Methoxyphenyl)[5H]pyrrolo[2,3-b]pyrazine] are 195.7 °C, 13 µM and 3.2 µM.
With `Br.Oc1cccc(-c2cc3nccnc3[nH]2)c1` [13 (RP134), 6-(3-Hydroxyphenyl)[5H]pyrrolo[2,3-b]pyrazine hydrobromide], the melting point was 258 °C (dec.). Half-maximal inhibition in series [1] (IC50) was put at 2.5 µM.
With `Br.Oc1ccc(-c2cc3nccnc3[nH]2)cc1` [15 (RP26), 6-(4-Hydroxyphenyl) [5H]pyrrolo[2,3-b]pyrazine hydrobromide], the melting point was 255 °C (dec.). The same molecule showed an IC50 in series [1] of 1.2 µM. Also, in series [3], the IC50 stood at 1.2 µM.
`COc1cc(OC)cc(-c2cc3nccnc3[nH]2)c1` [16 (RP21), 6-(3,5-Dimethoxyphenyl)[5H]pyrrolo[2,3-b]pyrazine]: the melting point was 216.7 °C. In series [2], this molecule had a 50% inhibitory concentration (IC50) of over 100 µM. Further, the IC50 in series [3] (15 μM ATP, Table 1) worked out at 60 µM.
In the same order, the values of `COc1cc(-c2cc3nccnc3[nH]2)cc(OC)c1OC` [17 (RP16), 6-(3,4,5-Trimethoxyphenyl)[5H]pyrrolo[2,3-b]pyrazine] are 231.7 °C, over 100 µM and 85 µM.
Consider `Fc1ccc(-c2cc3nccnc3[nH]2)cc1` [18 (RP76), 6-(4-Fluorophenyl)[5H]pyrrolo[2,3-b]pyrazine], for which the melting point is 244 °C (dec.). Moreover, half-maximal inhibition in series [1] (IC50) was put at 2.3 µM. For the same molecule, the IC50 in series [3] (15 μM ATP, Table 1) amounted to 1.9 µM.
Take `Clc1ccc(-c2cc3nccnc3[nH]2)cc1` [19 (RP14), 6-(4-Chlorophenyl)[5H]pyrrolo[2,3-b]pyrazine]: the melting point was 250 °C (dec.). Half-maximal inhibition in series [1] (IC50) was put at 1.8 µM.
In the case of `Brc1ccc(-c2cc3nccnc3[nH]2)cc1` [21 (RP77), 6-(4-Bromophenyl) [5H]pyrrolo[2,3-b]pyrazine], the melting point is 256 °C (dec.). Also, the IC50 in series [2] was over 100 µM. In series [3] (15 μM ATP, Table 1), the IC50 worked out at 6 µM.
Take `N#Cc1ccc(-c2cc3nccnc3[nH]2)cc1` [23 (RP20), 6-(4-Cyanophenyl) [5H]pyrrolo[2,3-b]pyrazine]: the melting point was 340 °C (dec.). The molecule also had a half-inhibitory concentration (IC50) in series [1] of 3 µM. In addition, the IC50 in series [3] (15 μM ATP, Table 1) came to 4.8 µM.
`Cc1ccc(-c2cc3nccnc3[nH]2)cc1` [24 (RP78), 6-(4-Methylphenyl)[5H]pyrrolo[2,3-b]pyrazine] displayed a melting point of 265.4 °C. The molecule further registered an IC50 in series [1] of 3 µM. In addition, the IC50 in series [3] (15 μM ATP, Table 1) was 2.6 µM.
Turning to `COc1ccc(-c2[nH]c3nccnc3c2C)cc1` [27 (RP95), 6-(4-Methoxyphenyl)-7-methyl[5H]pyrrolo[2,3-b]pyrazine], the melting point turned out to be 221.6 °C. In series [1], inhibition was half-maximal at 0.3 µM (IC50). Moreover, the IC50 in series [3] (15 μM ATP, Table 1) is 0.46 µM.
In the same order, the values of `Br.Cc1c(-c2ccc(O)cc2)[nH]c2nccnc12` [28 (RP96), 6-(4-Hydroxyphenyl)-7-methyl[5H]pyrrolo[2,3-b]pyrazine hydrobromide] are 262 °C (dec.), 0.25 µM and 0.52 µM.
The molecule `COc1ccc(-c2[nH]c3nccnc3c2C)cc1OC` [29 (RP123), 6-(3,4-Methoxyphenyl)-7-methyl[5H]pyrrolo[2,3-b]pyrazine] returned a melting point of 230.2 °C. The same molecule registered an IC50 in series [1] of 1.1 µM. For the same molecule, the IC50 in series [3] (15 μM ATP, Table 1) was found to be 2 µM.
As to `Cc1c(-c2ccc(Cl)cc2)[nH]c2nccnc12` [30 (RP80), 6-(4-Chlorophenyl)-7-methyl[5H]pyrrolo[2,3-b]pyrazine], the melting point is 260 °C (dec.). Moreover, the IC50 in series [3] (15 μM ATP, Table 1) came out at 1.7 µM.
On to `Cc1c(-c2ccc(OS(=O)(=O)N(C)C)cc2)[nH]c2nccnc12` [31 (RP125), 6-(4-Dimethylaminosulfamoyloxyphenyl)-7-methyl[5H]pyrrolo[2,3-b]pyrazine], for which the IC50 was 0.7 µM in series [1]; 0.9 µM in series [2]; 0.5 µM in series [3] (15 μM ATP, Table 1).
As for `CCCc1c(-c2ccc(OC)cc2)[nH]c2nccnc12` [32 (RP127)], the melting point was 188.5 °C. This molecule also showed an IC50 in series [1] of 0.4 µM. Also, the IC50 in series [3] (15 μM ATP, Table 1) came out at 0.4 µM.
`Br.CCCc1c(-c2ccc(O)cc2)[nH]c2nccnc12` [33 (RP132), 6-(4-Hydroxyphenyl)-7-propyl[5H]pyrrolo[2,3-b]pyrazine hydrobromide]: the melting point was 244 °C (dec.). This molecule gave an IC50 in series [1] of 25 µM. In addition, in series [3] (15 μM ATP, Table 1), the IC50 came to 1.8 µM.
`C=CCc1c(-c2ccc(OC)cc2)[nH]c2nccnc12` [34 (RP110), 7-Allyl-6-(4-methoxyphenyl)[5H]pyrrolo[2,3-b]pyrazine]: the melting point is 193.8 °C. In series [1], this molecule displayed a half-inhibitory concentration (IC50) of 1 µM. In series [3] (15 μM ATP, Table 1), the IC50 is 0.6 µM.
In the case of `COc1ccc(-c2[nH]c3nccnc3c2CCCCl)cc1` [35 (RP126), 7-(3-Chloropropyl)-6-(4-methoxyphenyl)[5H]pyrrolo[2,3-b]pyrazine], the melting point was 178 °C (dec.). The IC50 in series [3] (15 μM ATP, Table 1) was 2.5 µM.
Molecule `COc1ccc(-c2[nH]c3nccnc3c2C(C)C)cc1` [36 (RP102), 7-Isopropyl-6-(4-methoxyphenyl)[5H]pyrrolo[2,3-b]pyrazine] gave a melting point of 204.8 °C. Besides, the IC50 in series [3] (15 μM ATP, Table 1) stood at 0.5 µM.
Regarding `CC(C)c1c(-c2ccc(Cl)cc2)[nH]c2nccnc12` [37 (RP90), 6-(4-Chlorophenyl)-7-isopropyl[5H]pyrrolo[2,3-b]pyrazine], the melting point was determined as 208.6 °C. The molecule further displayed a concentration for half-maximal inhibition (IC50) in series [1] of 0.85 µM. In addition, in series [3] (15 μM ATP, Table 1), the IC50 was 0.75 µM.
On to `CCCCc1c(-c2ccc(OC)cc2)[nH]c2nccnc12` [38 (RP106), 7-n-Butyl-6-(4-methoxyphenyl)[5H]pyrrolo[2,3-b]pyrazine], for which the IC50 in series [3] (15 μM ATP, Table 1) was determined as 0.92 µM.
As for `COc1ccc(-c2c(C)c3nccnc3n2C2CC2)cc1` [42 (RP104), 6-(4-Methoxyphenyl)-7-methylcyclopropyl[5H]pyrrolo[2,3-b]pyrazine], the IC50 was 1 µM in series [1]; over 100 µM in series [2]; 1.1 µM in series [3] (15 μM ATP, Table 1).
As to `Oc1ccc(-c2[nH]c3nccnc3c2CC2CC2)cc1` [43 (RP112), 6-(4-Hydroxyphenyl)-7-methylcyclopropyl[5H]pyrrolo[2,3-b]pyrazine hydrobromide], the IC50 in series [1] is 50 µM; in series [2] it was over 100 µM; in series [3] (15 μM ATP, Table 1), 3 µM.
Molecule `Clc1ccc(-c2[nH]c3nccnc3c2Cc2ccccc2)cc1` [45 (RP91), 7-Benzyl-6-(4-chlorophenyl)[5H]pyrrolo[2,3-b]pyrazine] gave a melting point of 266.3 °C. The IC50 in series [2] was over 100 µM. In addition, the IC50 in series [3] (15 μM ATP, Table 1) was found to be 6.8 µM.
With `COc1ccc(-c2c(C)c3nccnc3n2C2CCCCC2)cc1` [46 (RP98), 6-(4-Methoxyphenyl)-7-methylcyclohexyl[5H]pyrrolo[2,3-b]pyrazine], the IC50 in series [1] was 5 µM; in series [2], over 100 µM; in series [3] (15 μM ATP, Table 1) it was 6.8 µM.
`Cc1c(-c2ccc(Cl)cc2)n(C2CCCCC2)c2nccnc12` [47 (RP99), 6-(4-Chlorophenyl)-7-methylcyclohexyl[5H]pyrrolo[2,3-b]pyrazine]: the IC50 is 10 µM in series [1]; over 100 µM in series [2]; 8 µM in series [3] (15 μM ATP, Table 1).
Take `Cn1c(-c2ccccc2)cc2nccnc21` [48 (RP22)]: the IC50 was 7 µM in series [2] and over 100 µM in series [3] (15 μM ATP, Table 1).
With `Cc1c(C2(c3ccc(Cl)cc3)CC2)[nH]c2nccnc12` [49 (RP130)], the IC50 in series [3] (15 μM ATP, Table 1) came out at 18 µM.
